Test results: patent publication US20220040230A1, “COMPOSITIONS AND METHODS FOR IMMUNOTHERAPIES” (The Regents of the University of California, priority 2018, published 2022)

Key:
MP2 [1] = assay: Surface expression on MP2 by flow cytometry; type: cell-based, human; settings: 24 h
Protocol: MP2 cells were left untreated or treated with rhTNF-α (20 ng/mL), rhIFN-γ (200 U/mL) or the combination of rhTNF-α (20 ng/mL) and rhIFN-γ (200 U/mL) for 24 h. Afterwards, the cells were detached and the surface expression of CD44, CD54, MHC-class I and B7H1 were assessed using PE conjugated antibodies followed by flow cytometric analysis. Isotype controls were used as controls (FIG. 14A). MP2 and Capan cells were treated as described in FIG. 14A, and were detached from the tissue culture plates, labeled with ^51Cr and used in a standard 4-hour ^51Cr release assay using IL-2 (1000 U/mL) treated NK cells. Pre-treatment of NK cells with IL-2 (1000 U/ml) were carried out for 18-24 hours. Percent cytotoxicity was determined at different effector to target ratio and the lytic units 30/10^6 cells were determined using inverse number of NK cells required to lyse 30% of the tumor cells×100 (FIG. 14B).
Staining was performed by labeling the cells with antibodies as described previously. Briefly, the cells were washed twice with ice-cold PBS/1% BSA. Predetermined optimal concentrations of specific human flow cytometric antibodies were added to 1×10^4 cells in 50 μl of cold-PBS/1% BSA and cells were incubated on ice for 30 min. […] Flow cytometry analysis was performed using Beckman Coulter Epics XL cytometer (Brea, Calif.) and results were analyzed in FlowJo vX software (Ashland, Oreg.).

OSCCs = assay: Chemotherapy-mediated cell death of OSCCs; type: cell-based, human
OSCSCs = assay: Chemotherapy-mediated cell death of OSCSCs; type: cell-based, human
MP2 [2] = assay: Propidium iodide cell death assay, MP2; type: cell-based, human; settings: NAC (20 nM) 24 hours before paclitaxel
Protocol: (§1) P-values of <0.05 were obtained for differences between MP2 vs. PL12 and Capan at the concentrations of 10 nM, 200 nM, 600 nM, 1000 nM and […] of Paclitaxel (n=2 per each experimental condition) (FIG. 25A).

[3] = system: NK-supernatant differentiated MP2 tumors; assay: Propidium iodide cell death assay, NK-supernatant differentiated MP2; type: cell-based, human
Protocol: as §1
Differentiation of MP2 tumors was conducted as described previously. NK cells were treated with a combination of anti-CD16mAb (3 μg/mL) and IL-2 (1,000 U/mL) for 18 hours before supernatants were removed and used for differentiation experiments. The amounts of IFN-γ produced by activated NK cells were assess with IFN-γ ELISA (Biolegend, CA, USA). MP2 cells were differentiated with gradual daily addition of increasing amounts of NK cell supernatants (of corresponding treatments). On average, to induce differentiation, a total of 3,500 pg of IFN-γ containing supernatants were added for 4 days to induce differentiation and resistance of MP2 tumor cells to NK cell-mediated cytotoxicity. Afterwards, target cells were washed with 1×PBS, detached and used for experiments.

PL12 = assay: Propidium iodide cell death assay, PL12
Capan = assay: Propidium iodide cell death assay, Capan
MP2 [4] = assay: 4-hour 51Cr release cytotoxicity / ADCC assay against MP2; type: cell-based, human; settings: IL-2 treated NK cells; tumor cells treated 24 h
Protocol: The target cells (5×10^5) were labeled with 50 μCi ^51Cr (Perkin Elmer, Santa Clara, Calif.) and chromated for 1 hour. Following incubation, target cells were washed once to remove excess unbound ^51Cr. […] Following incubation, target cells were washed again to remove excess unbound antibody and ^51Cr. Labeled target cells were culture with effector cells and the cytotoxicity against target cells were assessed using ^51Cr release cytotoxicity assay.
^51Cr Release Cytotoxicity Assay ^51Cr was purchased from Perkin Elmer (Santa Clara, Calif.). Standard ^51Cr release cytotoxicity assays were used to determine NK cell cytotoxic function in the experimental cultures. […] After a 4-hour incubation period, the supernatants were harvested from each sample and counted for released radioactivity using the gamma counter. Total (containing ^51Cr labeled target cells) and spontaneous (supernatants of target cells alone) release values were measured and used to calculate the percentage specific cytotoxicity. The percentage specific cytotoxicity was calculated using the following formula: […]
Lu30/10^6 is calculated by using the inverse of the number of effector cells needed to lyse 30% of target cells×100.
The ^51Cr release assay was performed as described previously. […] The percentage specific cytotoxicity was calculated using the following formula: […]

[5] = NAC (20 nM) 24 hours before paclitaxel

rhIFN-γ: Recombinant human IFN-γ from Biolegend
surface expression of B7H1 on MP2 (MP2 [1]): upregulate B7H1 | surface expression of CD54, MHC-class I, B7H1 and CD44 on MP2 (MP2 [1]; rhTNF-α 20 ng/mL, rhIFN-γ 200 U/mL): increase surface expression of CD54 and MHC-class I

N.N.[Cl][Pt][Cl] [CDDP, cis-dichlorodiammineplatinum]
cell death of patient-derived differentiated OSCCs (OSCCs): higher cell death | cell death of stem-like/poorly differentiated OSCSCs (OSCSCs): minimal effects

CC(=O)N[C@@H](CS)C(=O)O [NAC, N-Acetyl Cysteine]
effect of NAC on paclitaxel mediated cell death of MP2 (MP2 [2]): increased paclitaxel mediated cell death | effect of NAC on cell death of NK-supernatant differentiated MP2 [3, 5]: increased cell death | effect of NAC on paclitaxel mediated cell death of PL12 (PL12; [5]): increased paclitaxel mediated cell death | effect of NAC on paclitaxel mediated cell death of Capan (Capan; [5]): increased paclitaxel mediated cell death

CC(=O)O[C@H]1C(=O)[C@@]2(C)[C@H]([C@H](OC(=O)c3ccccc3)[C@]3(O)C[C@H](OC(=O)[C@H](O)[C@@H](NC(=O)c4ccccc4)c4ccccc4)C(C)=C1C3(C)C)[C@]1(OC(C)=O)CO[C@@H]1C[C@@H]2O [paclitaxel]
paclitaxel mediated cell death of NK-supernatant differentiated MP2 [3]: susceptibility to paclitaxel | cell death of patient-derived differentiated OSCCs (OSCCs): higher cell death | cell death of stem-like/poorly differentiated OSCSCs (OSCSCs): minimal effects | paclitaxel mediated cell death of PL12 (PL12; compared with MP2): higher levels of cell death | paclitaxel mediated cell death of Capan (Capan; compared with MP2): higher levels of cell death

B1: rhIFN-γ: Recombinant human IFN-γ from Biolegend (protein, UniProt P01579 24-161, looked up)
Interferon gamma: QDPYVKEAENLKKYFNAGHSDVADNGTLFLGILKNWKEESDRKIMQSQIVSFYFKLFKNFKDDQSIQKSVETIKEDMNVKFFNSNKKKRDDFEKLTNYSVTDLNVQRKAIHELIQVMAELSPAAKTGKRKRSQMLFRG
resistance of MP2 against NK cell mediated cytotoxicity (MP2 [4]): significant resistance
